The target in series [1] is T1, Renin (Homo sapiens, UniProt P00797).
T1 sequence (P00797 whole entry): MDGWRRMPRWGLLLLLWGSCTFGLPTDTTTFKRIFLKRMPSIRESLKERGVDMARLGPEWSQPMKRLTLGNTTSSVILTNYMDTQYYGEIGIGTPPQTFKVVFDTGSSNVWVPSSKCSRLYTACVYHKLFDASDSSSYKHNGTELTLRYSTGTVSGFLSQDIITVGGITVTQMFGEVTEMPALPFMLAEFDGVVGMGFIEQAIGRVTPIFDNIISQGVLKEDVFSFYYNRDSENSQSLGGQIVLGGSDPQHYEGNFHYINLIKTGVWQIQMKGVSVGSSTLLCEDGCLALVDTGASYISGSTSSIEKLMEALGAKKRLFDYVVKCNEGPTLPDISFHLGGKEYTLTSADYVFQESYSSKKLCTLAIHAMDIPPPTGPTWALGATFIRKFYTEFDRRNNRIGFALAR
As to the kind of experiment: In vitro inhibition of renin in human plasma. In kind it is cell-free.

The target of series [2] is T1, Renin. Briefly: In vitro inhibition of purified human kidney renin.
A short description of series [3]: Half-life was determined. In kind it is ADME. To be noted: human.
Another series deals with Pepsin A (Homo sapiens, UniProt P0DJD9). Briefly: Selectivity against human pepsin.
Chain of Pepsin A (P0DJD9 whole entry): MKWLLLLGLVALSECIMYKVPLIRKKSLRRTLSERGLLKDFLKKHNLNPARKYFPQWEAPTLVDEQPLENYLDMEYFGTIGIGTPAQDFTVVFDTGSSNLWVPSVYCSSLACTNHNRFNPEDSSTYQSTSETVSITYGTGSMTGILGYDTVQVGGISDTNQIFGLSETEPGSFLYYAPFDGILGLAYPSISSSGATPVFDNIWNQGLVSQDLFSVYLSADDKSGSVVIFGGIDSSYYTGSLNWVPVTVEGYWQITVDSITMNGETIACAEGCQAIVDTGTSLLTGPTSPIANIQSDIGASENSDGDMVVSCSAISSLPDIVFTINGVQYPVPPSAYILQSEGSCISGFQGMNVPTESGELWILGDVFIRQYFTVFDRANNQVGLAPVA
Another series concerns the target T2, Cathepsin E (Homo sapiens, UniProt P14091).
T2 sequence (P14091 whole entry): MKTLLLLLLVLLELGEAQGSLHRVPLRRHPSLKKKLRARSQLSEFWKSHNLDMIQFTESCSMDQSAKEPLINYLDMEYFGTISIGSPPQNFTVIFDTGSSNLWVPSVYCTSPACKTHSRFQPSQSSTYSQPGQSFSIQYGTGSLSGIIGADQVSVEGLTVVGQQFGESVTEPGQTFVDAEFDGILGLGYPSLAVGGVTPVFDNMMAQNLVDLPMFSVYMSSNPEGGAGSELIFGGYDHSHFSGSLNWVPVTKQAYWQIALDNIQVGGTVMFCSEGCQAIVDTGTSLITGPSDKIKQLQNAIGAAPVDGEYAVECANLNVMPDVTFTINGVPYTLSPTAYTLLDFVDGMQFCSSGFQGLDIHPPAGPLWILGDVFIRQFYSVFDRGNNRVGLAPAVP
Briefly: Selectivity against human cathepsin E.

The next series has as its target Cathepsin D (Homo sapiens, UniProt P07339). Briefly: Selectivity against human cathepsin D.
A further series concerns the target T3, Gastricsin (Homo sapiens, UniProt P20142).
T3 sequence (P20142 whole entry): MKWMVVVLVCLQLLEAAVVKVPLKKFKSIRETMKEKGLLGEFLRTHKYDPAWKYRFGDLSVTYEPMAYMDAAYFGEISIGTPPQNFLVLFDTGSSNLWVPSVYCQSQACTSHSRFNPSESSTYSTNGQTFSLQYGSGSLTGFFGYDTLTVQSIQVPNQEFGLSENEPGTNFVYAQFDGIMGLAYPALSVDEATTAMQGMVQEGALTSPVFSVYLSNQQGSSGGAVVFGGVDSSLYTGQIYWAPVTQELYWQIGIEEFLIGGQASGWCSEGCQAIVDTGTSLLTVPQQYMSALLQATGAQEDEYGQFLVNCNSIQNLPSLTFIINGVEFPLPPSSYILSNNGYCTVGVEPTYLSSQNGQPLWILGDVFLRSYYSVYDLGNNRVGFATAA
As to the kind of experiment: Selectivity against human gastricsin.

Broadly, the IC50 is the midpoint of a concentration-inhibition curve. Read a low IC50 as greater potency. The half-life is the time in which the quantity being followed falls by half.

Chain of Cathepsin D (P07339 65-162 limits assumed): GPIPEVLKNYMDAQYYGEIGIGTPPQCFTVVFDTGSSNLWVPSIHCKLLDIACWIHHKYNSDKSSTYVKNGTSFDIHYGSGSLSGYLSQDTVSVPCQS
Chain of Cathepsin D (P07339 169-412 limits assumed): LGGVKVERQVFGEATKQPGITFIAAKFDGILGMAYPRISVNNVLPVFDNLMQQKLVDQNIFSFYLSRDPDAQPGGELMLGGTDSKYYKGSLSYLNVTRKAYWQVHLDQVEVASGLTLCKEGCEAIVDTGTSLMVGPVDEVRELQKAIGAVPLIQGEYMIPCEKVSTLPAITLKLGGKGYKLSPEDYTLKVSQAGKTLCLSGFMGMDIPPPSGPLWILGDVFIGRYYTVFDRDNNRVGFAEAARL

For `CC(C)(C)S(=O)(=O)C[C@@H](Cc1ccccc1)C(=O)N[C@@H](Cc1c[nH]cn1)C(=O)N[C@@H](CC1CCCCC1)[C@@H](O)[C@@H](O)CCc1ccccn1`, the values for the IC50 at Renin [1] and against Renin [2] were 0.43 nM and 0.17 nM, respectively. In series [3], this compound yielded a half-life of 2.85 h.
Regarding `O=C(N[C@@H](Cc1cnc[nH]1)C(=O)N[C@@H](CC1CCCCC1)[C@@H](O)[C@@H](O)CCc1ccccn1)[C@@H](CC(=O)N1CCOCC1)Cc1ccccc1`, the IC50 against Renin [1] and against Renin [2] was 1.1 nM each time. Besides, in series [3], the half-life amounted to 0.367 h.
As for `NC1CCN(S(=O)(=O)C[C@@H](Cc2ccccc2)C(=O)N[C@@H](Cc2cnc[nH]2)C(=O)N[C@@H](CC2CCCCC2)[C@@H](O)[C@@H](O)CCc2ccccn2)CC1`, the IC50 against Renin [1] amounted to 0.54 nM; at Renin [2], 0.7 nM. In addition, in series [3], the half-life was about 5 h.
For the compound `CCOC(=O)CCCCC(=O)N[C@@H](Cc1ccccc1)C(=O)N[C@@H](Cc1c[nH]cn1)C(=O)N[C@@H](CC1CCCCC1)[C@@H](O)[C@@H](O)CCc1ccccn1`, the values for the IC50 at Renin [1] and against Renin [2] were 0.75 nM and 0.69 nM, respectively.
Taken in the same sequence, the figures for `CSC[C@H](NC(=O)[C@@H](CC(=O)N1CCC(N)CC1)Cc1ccccc1)C(=O)N[C@@H](CC1CCCCC1)[C@@H](O)[C@@H](O)CCc1ccccn1` were 0.25 nM and 0.26 nM.
As for `N[C@H]1CC[C@@H](C(=O)N[C@@H](Cc2ccccc2)C(=O)N[C@@H](Cc2cnc[nH]2)C(=O)N[C@@H](CC2CCCCC2)[C@@H](O)[C@@H](O)CCc2ccccn2)CC1`, the IC50 turned out to be 0.47 nM at Renin [1] and 0.5 nM on Renin [2]. The same compound gave a half-life in series [3] of under 0.05 h.
Taken in the same sequence, the figures for `COc1ccc(C[C@H](NC(=O)[C@H]2CC[C@@H](N)CC2)C(=O)N[C@@H](Cc2cnc[nH]2)C(=O)N[C@@H](CC2CCCCC2)[C@@H](O)[C@@H](O)CCc2ccccn2)cc1` were 5.3 nM, 4.2 nM and about 1.5 h.
Regarding `N[C@H]1CC[C@@H](S(=O)(=O)C[C@@H](Cc2ccccc2)C(=O)N[C@@H](Cc2cnc[nH]2)C(=O)N[C@@H](CC2CCCCC2)[C@@H](O)[C@@H](O)CCc2ccccn2)CC1`, the IC50 against Renin [1] and against Renin [2] was 0.31 nM each time.
With `NC1CCN(C(=O)O[C@@H](Cc2ccccc2)C(=O)N[C@@H](Cc2cnc[nH]2)C(=O)N[C@@H](CC2CCCCC2)[C@@H](O)[C@@H](O)CCc2ccccn2)CC1`, the IC50 on Renin [1] turned out to be 0.37 nM; at Renin [2], 0.53 nM.
As to `NC1CCN(C(=O)C[C@@H](Cc2ccccc2)C(=O)N[C@@H](Cc2c[nH]cn2)C(=O)N[C@@H](CC2CCCCC2)[C@@H](O)[C@@H](O)CCc2ccccn2)CC1`, the IC50 against Pepsin A, at Cathepsin E, against Cathepsin D and against Gastricsin was over 100000 nM in each case. The half-life in series [3] was found to be 1.52 h.
`CN(CCN(C)C(=O)N1CCOCC1)C(=O)O[C@@H](Cc1ccccc1)C(=O)N[C@@H](Cc1c[nH]cn1)C(=O)N[C@@H](CC1CCCCC1)[C@@H](O)[C@@H](O)CCc1ccccn1`: the IC50 is 0.14 nM against Renin [1] and 0.16 nM against Renin [2].
Taken in the same sequence, the figures for `NC1CCN(C(=O)C[C@@H](Cc2cccc3ccccc23)C(=O)N[C@@H](Cc2cnc[nH]2)C(=O)N[C@@H](CC2CCCCC2)[C@@H](O)[C@@H](O)CCc2ccccn2)CC1` were 0.79 nM and 0.13 nM.
For the compound `CCC[C@H](NC(=O)[C@@H](CC(=O)N1CCC(N)CC1)Cc1ccccc1)C(=O)N[C@@H](CC1CCCCC1)[C@@H](O)[C@@H](O)CCc1ccccn1`, the results for the half-inhibitory concentration (IC50) at Renin [1] and at Renin [2] were 1.3 nM and 0.68 nM, respectively.

These data come from ChEMBL document CHEMBL1127052, “Renin inhibitors containing a pyridyl amino diol derived C-terminus” (J Med Chem, 1993).
